# Key:
# human IRE-1α = human IRE-1α (Homo sapiens (Human), UniProt O75460); assay: IRE-1α assay: cleavage of mini-XBP-1 mRNA stem-loop substrate by GST-IRE-1α in vitro; format: biochemical; conditions: values in text
# Procedure: A fusion protein comprising glutathione S transferase (GST) and human IRE-1α (GST-IRE-1α) was obtained from a 500 ml baculovirus-infected insect cell culture and used to measure IRE-1α activity in vitro.
# Five μl of a reaction mixture comprising 1× reaction buffer (5× reaction buffer is 100 mM Hepes pH 7.5, 250 mM KOAc, 2.5 mM MgCl2), 3 mM DTT, and 0.4% polyethylene glycol water were added to each well of 384 well plates. Twenty-five nanoliters of a 1 mM test compound solution were added to test wells. […] Negative control wells contained only reaction mixture and test compound.
# The plates were again spun at 1200 rpm for 30 seconds.
# The plates were covered with lids and incubated for one hour at 30° C. The plates were then transferred to an ACQUEST™ microplate reader. Data was analyzed using data analysis software, and the percent activity of IRE-1α was calculated.
# RNase A = RNase A (Bos taurus (Bovine), UniProt P61823); assay: RNase A assay with mini-XBP-1 mRNA stem-loop substrate; format: biochemical; conditions: 2.5 μM test compound
# Procedure: RNase A was assayed as described for RNase T1. Final concentrations for the assay were: 63 nM substrate, 0.4 pg RNase A (Qiagen; 100 mg/ml or 7000 U/ml), and 2.5 μM test compound.
# RNase T1 = RNase T1 (Aspergillus oryzae (strain ATCC 42149 / RIB 40) (Yellow koji mold), UniProt P00651); assay: T1 RNase assay with mini-XBP-1 mRNA stem-loop substrate; format: biochemical; conditions: 2.5 μM test compound
# Procedure: T1 RNase was assayed as follows. Five μl of a reaction mixture comprising 1× reaction buffer (5× reaction buffer is 100 mM Hepes pH 7.5, 250 mM KOAc, 2.5 mM MgCl2), 3 mM DTT, and 0.4% polyethylene glycol water were added to each well of 384 well plates. Twenty-five nanoliters of a 1 mM test compound solution were added to test wells. Three μl of a 1/48,000 dilution of an approximately 200,000 U/ml RNase T1 (Worthington) preparation were added to each test well and to positive control wells (final concentration 49.5 pg/well). Negative control wells contained only reaction mixture and test compound.
# After spinning the plates at 1200 rpm for 30 seconds, 3 μl of the mini-XBP-1 mRNA stem-loop substrate described in Example 1 were added to each well of a control plate. The plates were again spun at 1200 rpm for 30 seconds. Final concentrations for the assay were: 63 nM substrate, 49.5 pg RNase T1, and 2.5 μM test compound.
# The plates were covered with lids and incubated for one hour at 30° C. The plates were then transferred to an ACQUEST™ microplate reader. Data was analyzed using data analysis software. The percent activity of RNase T1 was calculated.
# [1] = system: RPMI-8226 multiple myeloma cells; assay: Proliferation of multiple myeloma cells (CellTiter-Glo); format: cell-based, human; conditions: 24 hours, 100 μM to 0 μM
# Procedure: FIG. 5. Graph showing inhibition of proliferation of multiple myeloma cells by IRE-1α inhibitor 11-28 (Example 11). RPMI-8226 multiple myeloma cells were seeded at 20,000 cells per well in RPMI culture medium containing 1% FBS and the required antibiotics. The plate was incubated overnight at 37° C., 95% air, 5% CO2. The following day, compound 11-28 or medium alone was added to wells, resulting in a final volume of 100 μl per well. The compound concentration ranged from 100 μM to 0 μM, with compounds diluted by a factor of 4. After addition of compound, the plate was incubated at 37° C., 95% air, 5% CO2 for 24 hours. Cell proliferation was measured using the CellTiter-Glo assay (Promega), following the manufacturer's instructions.
# Proliferation assays using myeloma cell lines (U266, RPMI8226 and MM.1s) are used to determine ED50. Compounds are used as single agents and in combination with other chemotherapeutic drugs.
# primary murine B cells = assay: IgM secretion after LPS stimulation of primary B cells (ELISA); format: cell-based, mouse; conditions: added at beginning of stimulation and again at 24 hours, 20 μg/ml LPS, 48 hr
# Procedure: FIG. 9. Inhibition of IgM secretion after LPS stimulation of primary murine B cells with selected IRE-1α inhibitors. […] However, compounds had little effect when at added after 40 hours of stimulation; only slight inhibition at the highest dose. Methods were performed as previously described by Iwakoshi et al., Nature 4, 321-29, 2003 for B cell stimulation, plasma cell differentiation and IgM secretion. Primary B cells were Isolated from BALB/c splenocytes using mouse CD43 Microbeads (Miltenyi cat#130-049-801) with 1×10^6 cells per treatment. Purified B cells were stimulated in B Cell Media at a final density of 1×10^6/ml/well in 24-well plates with 20 μg/ml LPS (Sigma cat#L4391). IRE-1α inhibitor compound 17-1 was added at various concentrations (50 μM, 10 μM, 2 μM, 0.4 μM and 0.08 μM) at specified time points (t=0, t=24 hr, t=40 hr, etc.) Cells were incubated for 48 hr at 37° C. At end of the incubation, cells were spun in a plate at 1500 rpm/3 min. Supernatants were collected for quantitation for IgM secretion using a mouse IgM ELISA Kit (Bethyl Labs cat#E90-101). B Cell medium included RPMI+10% FBS supplemented with NEAA, HEPES, NaPyr, PSQ, and β-mercaptoethanol.
# [2] = system: phosphorylated IRE-1α and XBP1-splicing in RPMI8226 cells; assay: Western blot and RT-PCR of RPMI8226 cells after 24 hour treatment; format: cell-based, human
# Source text: FIG. 6. […] The numbers indicate the concentration of bortezomib in nM.
# RNase T1, sequence (P00651 27-130): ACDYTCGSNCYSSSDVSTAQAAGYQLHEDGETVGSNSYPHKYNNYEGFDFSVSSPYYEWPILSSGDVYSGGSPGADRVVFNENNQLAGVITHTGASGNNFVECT
# RNase A, sequence (P61823 27-150): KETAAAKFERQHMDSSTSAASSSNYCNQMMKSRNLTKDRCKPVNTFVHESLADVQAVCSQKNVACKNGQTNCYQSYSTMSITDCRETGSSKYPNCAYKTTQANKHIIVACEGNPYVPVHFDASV
# human IRE-1α, sequence (O75460 19-977): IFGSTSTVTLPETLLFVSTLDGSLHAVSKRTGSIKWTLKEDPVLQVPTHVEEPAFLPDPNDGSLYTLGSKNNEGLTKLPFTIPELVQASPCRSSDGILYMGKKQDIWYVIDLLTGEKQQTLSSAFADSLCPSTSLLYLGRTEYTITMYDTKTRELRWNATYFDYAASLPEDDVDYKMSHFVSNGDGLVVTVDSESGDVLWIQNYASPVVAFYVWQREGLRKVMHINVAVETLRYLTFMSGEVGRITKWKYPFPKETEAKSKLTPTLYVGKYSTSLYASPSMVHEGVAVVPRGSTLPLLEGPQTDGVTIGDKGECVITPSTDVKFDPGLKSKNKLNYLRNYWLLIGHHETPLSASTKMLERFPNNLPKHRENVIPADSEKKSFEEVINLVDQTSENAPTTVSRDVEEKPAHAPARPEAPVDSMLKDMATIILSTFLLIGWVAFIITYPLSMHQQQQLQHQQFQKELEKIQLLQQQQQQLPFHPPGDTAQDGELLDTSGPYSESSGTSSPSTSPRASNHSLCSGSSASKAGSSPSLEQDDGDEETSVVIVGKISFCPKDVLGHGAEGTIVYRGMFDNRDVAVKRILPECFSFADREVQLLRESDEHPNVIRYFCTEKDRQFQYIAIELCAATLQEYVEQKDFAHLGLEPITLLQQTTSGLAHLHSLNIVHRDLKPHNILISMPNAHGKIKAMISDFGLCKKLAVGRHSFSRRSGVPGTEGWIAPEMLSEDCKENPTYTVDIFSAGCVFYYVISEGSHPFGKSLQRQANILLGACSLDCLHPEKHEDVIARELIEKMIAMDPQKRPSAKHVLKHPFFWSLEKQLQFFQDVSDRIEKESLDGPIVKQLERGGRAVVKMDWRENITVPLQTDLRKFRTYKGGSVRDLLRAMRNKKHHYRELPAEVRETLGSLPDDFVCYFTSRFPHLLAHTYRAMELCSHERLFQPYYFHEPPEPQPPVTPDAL
SMILES,selectivity for IRE-1 over RNase A (RNase A),selectivity for IRE-1 over T1 RNase (RNase T1),other results
"CCOc1cccc(C=O)c1O [3-ethoxy o-vanillin, 2-hydroxy-3-ethoxybenzaldehyde]",selective for IRE-1,selective for IRE-1,IC50 (human IRE-1α): 1000 nM
COc1ccc(Br)c(C=O)c1O [6-bromo o-vanillin],selective for IRE-1,selective for IRE-1,
COc1cc(-c2cccs2)cc(C=O)c1O [11-28],,,inhibition of proliferation [1]: inhibits the proliferation
"CN(C)C(=O)c1ccc(-c2ccc3c(C=O)c(O)ccc3c2)cc1 [17-1, 4-(5-formyl-6-hydroxynaphthalen-2-yl)-N,N-dimethylbenzamide]",,,IgM secretion (primary murine B cells): blocked IgM secretion at all doses tested down to 100 nM
"CC(C)C[C@H](NC(=O)[C@H](Cc1ccccc1)NC(=O)c1cnccn1)B(O)O [bortezomib, [(1R)-3-methyl-1-[[(2S)-1-oxo-3-phenyl-2-[(pyrazinylcarbonyl)amino]propyl]amino]butyl]boronic acid]",,,levels of phosphorylated IRE-1α and XBP1-splicing [2]: increases the levels of phosphorylated IRE-1α and XBP1-splicing
"COc1cccc(C=O)c1O [o-vanillin, 2-hydroxy-3-methoxybenzaldehyde]",selective for IRE-1,selective for IRE-1,
